Experimental data reported in patent US20250101041A1, “POSITIVE ALLOSTERIC MODULATORS OF THE MUSCARINIC ACETYLCHOLINE RECEPTOR M4” (Vanderbilt University, priority 2022, published 2025).

Molecular target: T1, human mAChR M4 (Homo sapiens, UniProt P08173)
T1 construct: expressed in transfected cells; host or cells: CHO-K1 (American Type Culture Collection), stably expressing hM4 and Gqi5
T1 sequence (P08173 1-479): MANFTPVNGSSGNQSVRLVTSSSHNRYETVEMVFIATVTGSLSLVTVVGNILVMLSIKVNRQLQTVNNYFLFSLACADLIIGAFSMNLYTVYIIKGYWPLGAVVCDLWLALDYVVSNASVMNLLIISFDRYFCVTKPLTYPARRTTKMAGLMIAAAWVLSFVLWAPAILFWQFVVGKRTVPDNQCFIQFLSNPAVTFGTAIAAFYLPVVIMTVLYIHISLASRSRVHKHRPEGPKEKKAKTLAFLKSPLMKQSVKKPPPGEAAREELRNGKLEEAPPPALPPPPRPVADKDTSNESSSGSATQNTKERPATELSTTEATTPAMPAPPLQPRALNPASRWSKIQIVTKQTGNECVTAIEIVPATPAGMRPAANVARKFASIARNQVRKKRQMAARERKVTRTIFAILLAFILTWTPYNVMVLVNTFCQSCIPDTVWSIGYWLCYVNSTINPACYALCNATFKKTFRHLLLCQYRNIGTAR
Test: mAChR M4 cell-based functional assay: calcium mobilization (Fluo-4, FDSS), potentiation of EC20 acetylcholine response in hM4-Gqi5 CHO-K1 cells
Conditions: human M4; for Emax at 30 µM: CHO-K1, % ACh maximum at 30 μM; for EC50: potentiation of EC20 acetylcholine response, calcium mobilization
Procedure, shortened: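 CHO-K1 cells stably co-expressing human M4 and chimeric Gqi5, loaded with Fluo-4 AM (50 min, 37 °C). Compounds in 11-point 1:3 series added first; EC20 acetylcholine added at 144 s and again at 230 s. Calcium read on FDSS at 1 Hz; EC50 and Emax from four-parameter logistic fit of potentiated EC20 response.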

Row | Emax at 30 µM | EC50 | SMILES
1 | 87% | 669 nM | Cc1c(N2CCc3ncc(-c4ccc(C(F)(F)F)nc4)cc3C2)nn2c(=O)ccnc2c1C [Compound 1-90, 8,9-dimethyl-7-(3-(6-(trifluoromethyl)pyridin-3-yl)-7,8-dihydro-1,6-naphthyridin-6(5H)-yl)-4H-pyrimido[1,2-b]pyridazin-4-one]
2 | 84% | 24 nM | Cc1cc2nccc(=O)n2nc1N1CCc2ncc(N3CCOc4ncccc43)cc2C1 [Compound 2-7, 7-(3-(2,3-dihydro-1H-pyrido[2,3-b][1,4]oxazin-1-yl)-7,8-dihydro-1,6-naphthyridin-6(5H)-yl)-8-methyl-4H-pyrimido[1,2-b]pyridazin-4-one]
3 | 70% | – | Cc1ccnnc1-c1cnc2c(c1)CN(c1nn3c(=O)ccnc3cc1C)CC2 [Compound 1-356, 8-methyl-7-(3-(4-methylpyridazin-3-yl)-7,8-dihydro-1,6-naphthyridin-6(5H)-yl)-4H-pyrimido[1,2-b]pyridazin-4-one]
4 | 51% | 1980 nM | Cc1cc2nccc(=O)n2nc1N1CCc2ncc(-c3cccc4[nH]cc(C)c34)cc2C1 [Compound 1-435, 8-methyl-7-(3-(3-methyl-1H-indol-4-yl)-7,8-dihydro-1,6-naphthyridin-6(5H)-yl)-4H-pyrimido[1,2-b]pyridazin-4-one]
5 | 96% | 130 nM | Cc1ccccc1-c1cnc2c(c1)CN(c1nn3c(=O)ccnc3cc1C)CC2 [Compound 1-431, 8-methyl-7-(3-(o-tolyl)-7,8-dihydro-1,6-naphthyridin-6(5H)-yl)-4H-pyrimido[1,2-b] pyridazin-4-one]
6 | 75% | 673 nM | Cc1cc(F)c(F)c(-c2cnc3c(c2)CN(c2nn4c(=O)ccnc4c(C)c2C)CC3)c1 [Compound 1-341, 7-(3-(2,3-difluoro-5-methylphenyl)-7,8-dihydro-1,6-naphthyridin-6(5H)-yl)-8,9-dimethyl-4H-pyrimido[1,2-b]pyridazin-4-one]
7 | 91% | 313 nM | Cc1ncccc1-c1cnc2c(c1)CN(c1nn3c(=O)cc(C(F)F)nc3c(C)c1C)CC2 [Compound 1-115, 2-(difluoromethyl)-8,9-dimethyl-7-(3-(2-methylpyridin-3-yl)-7,8-dihydro-1,6-naphthyridin-6(5H)-yl)-4H-pyrimido[1,2-b]pyridazin-4-one]
8 | 101% | 308 nM | Cc1cc2nccc(=O)n2nc1N1CCc2ncc(Nc3ccnnc3)cc2C1 [Compound 2-136, 8-methyl-7-(3-(pyridazin-4-ylamino)-7,8-dihydro-1,6-naphthyridin-6(5H)-yl)-4H-pyrimido[1,2-b]pyridazin-4-one]
9 | 97% | 1820 nM | Cc1cc2nccc(=O)n2nc1N1CCc2ncc(Nc3cncnc3C)cc2C1 [Compound 2-139, 8-methyl-7-(3-((4-methylpyrimidin-5-yl)amino)-7,8-dihydro-1,6-naphthyridin-6(5H)-yl)-4H-pyrimido[1,2-b]pyridazin-4-one]
10 | 86% | 3970 nM | Cc1cc(C(=O)O)ncc1-c1cnc2c(c1)CN(c1nn3c(=O)ccnc3cc1C)CC2 [Compound 1-406, 4-methyl-5-(6-(8-methyl-4-oxo-4H-pyrimido[1,2-b]pyridazin-7-yl)-5,6,7,8-tetrahydro-1,6-naphthyridin-3-yl)picolinic acid]
11 | 74% | 526 nM | COc1cncc(-c2cnc3c(c2)CN(c2nn4c(=O)cc(C)nc4c(C)c2C)CC3)c1 [Compound 1-199, 7-(3-(5-methoxypyridin-3-yl)-7,8-dihydro-1,6-naphthyridin-6(5H)-yl)-2,8,9-trimethyl-4H-pyrimido[1,2-b]pyridazin-4-one]
12 | 80% | 852 nM | Cc1cc(=O)n2nc(N3CCc4ncc(-c5ccccc5C5CC5)cc4C3)c(C)c(C)c2n1 [Compound 1-248, 7-(3-(2-cyclopropylphenyl)-7,8-dihydro-1,6-naphthyridin-6(5H)-yl)-2,8,9-trimethyl-4H-pyrimido[1,2-b]pyridazin-4-one]
13 | 34% | 2640 nM | Cc1cc2nccc(=O)n2nc1N1CCc2ncc(-c3cnccc3C#N)cc2C1 [Compound 1-319, 3-(6-(8-methyl-4-oxo-4H-pyrimido[1,2-b]pyridazin-7-yl)-5,6,7,8-tetrahydro-1,6-naphthyridin-3-yl)isonicotinonitrile]
14 | 63% | 2540 nM | Cc1cc2nccc(=O)n2nc1N1CCc2ncc(-c3cc(F)ccn3)cc2C1 [Compound 1-354, 7-(3-(4-fluoropyridin-2-yl)-7,8-dihydro-1,6-naphthyridin-6(5H)-yl)-8-methyl-4H-pyrimido [1,2-b]pyridazin-4-one]
15 | 93% | 17 nM | Cc1ccccc1Nc1cnc2c(c1)CN(c1nn3c(=O)ccnc3cc1C)CC2 [Compound 2-75, 8-methyl-7-(3-(o-tolylamino)-7,8-dihydro-1,6-naphthyridin-6(5H)-yl)-4H-pyrimido[1,2-b]pyridazin-4-one]
16 | 91% | 315 nM | Cc1cc(=O)n2nc(N3CCc4ncc(-c5cnc(Cl)cc5C)cc4C3)c(C)cc2n1 [Compound 1-207, 7-(3-(6-chloro-4-methylpyridin-3-yl)-7,8-dihydro-1,6-naphthyridin-6(5H)-yl)-2,8-dimethyl-4H-pyrimido[1,2-b]pyridazin-4-one]
17 | 103% | 144 nM | COC1CN(C(=O)c2cc(=O)n3nc(N4CCc5ncc(C(F)(F)F)cc5C4)c(C)cc3n2)C1 [Compound 1-47, 2-(3-methoxyazetidine-1-carbonyl)-8-methyl-7-(3-(trifluoromethyl)-7,8-dihydro-1,6-naphthyridin-6(5H)-yl)-4H-pyrimido[1,2-b]pyridazin-4-one]
18 | 70% | 586 nM | Cc1cc2ncc(C3=CCCC3)c(=O)n2nc1N1CCc2ncc(C(F)(F)F)cc2C1 [Compound 1-20, 3-(Cyclopent-1-en-1-yl)-8-methyl-7-(3-(trifluoromethyl)-7,8-dihydro-1,6-naphthyridin-6(5H)-yl)-4H-pyrimido[1,2-b]pyridazin-4-one]
19 | 96% | 89 nM | COc1ccncc1-c1cnc2c(c1)CN(c1nn3c(=O)cc(C)nc3cc1C)CC2 [Compound 1-295, 7-(3-(4-methoxypyridin-3-yl)-7,8-dihydro-1,6-naphthyridin-6(5H)-yl)-2,8-dimethyl-4H-pyrimido[1,2-b]pyridazin-4-one]
20 | 84% | 32 nM | Cc1cc2nccc(=O)n2nc1N1CCc2ncc(Nc3cccc(F)c3F)cc2C1 [Compound 2-106, 7-(3-((2,3-difluorophenyl)amino)-7,8-dihydro-1,6-naphthyridin-6(5H)-yl)-8-methyl-4H-pyrimido[1,2-b]pyridazin-4-one]
21 | 85% | 574 nM | Cc1cc(F)c(F)cc1-c1cnc2c(c1)CN(c1nn3c(=O)ccnc3c(C)c1C)CC2 [Compound 1-446, 7-(3-(4,5-difluoro-2-methylphenyl)-7,8-dihydro-1,6-naphthyridin-6(5H)-yl)-8,9-dimethyl-4H-pyrimido[1,2-b]pyridazin-4-one]
22 | 59% | 639 nM | Cc1nc(-c2cccc(Nc3cnc4c(c3)CN(c3nn5c(=O)ccnc5cc3C)CC4)c2)cs1 [Compound 2-83, 8-methyl-7-(3-((3-(2-methylthiazol-4-yl)phenyl)amino)-7,8-dihydro-1,6-naphthyridin-6(5H)-yl)-4H-pyrimido[1,2-b]pyridazin-4-one]
23 | 90% | 481 nM | COc1cnccc1-c1cnc2c(c1)CN(c1nn3c(=O)cc(C)nc3c(C)c1C)CC2 [Compound 1-282, 7-(3-(3-methoxypyridin-4-yl)-7,8-dihydro-1,6-naphthyridin-6(5H)-yl)-2,8,9-trimethyl-4H-pyrimido[1,2-b]pyridazin-4-one]
24 | 109% | 66 nM | Cc1ccc(-c2cnc3c(c2)CN(c2nn4c(=O)cc(C5CC5)nc4cc2C)CC3)cn1 [Compound 1-79, 2-cyclopropyl-8-methyl-7-(3-(6-methylpyridin-3-yl)-7,8-dihydro-1,6-naphthyridin-6(5H)-yl)-4H-pyrimido[1,2-b]pyridazin-4-one]
25 | 78% | 606 nM | Cc1cc2nccc(=O)n2nc1N1CCc2ncc(-c3cccc(Cl)c3C)cc2C1 [Compound 1-441, 7-(3-(3-chloro-2-methylphenyl)-7,8-dihydro-1,6-naphthyridin-6(5H)-yl)-8-methyl-4H-pyrimido[1,2-b]pyridazin-4-one]
26 | 91% | 901 nM | Cc1c(N2CCc3ncc(C4CCOCC4)cc3C2)nn2c(=O)ccnc2c1C [Compound 1-429, 8,9-Dimethyl-7-(3-(tetrahydro-2H-pyran-4-yl)-7,8-dihydro-1,6-naphthyridin-6(5H)-yl)-4H-pyrimido[1,2-b]pyridazin-4-one]
27 | 64% | 1720 nM | Cc1cc2nccc(=O)n2nc1N1CCc2ncc(-c3cccnc3C(C)C)cc2C1 [Compound 1-422, 7-(3-(2-isopropylpyridin-3-yl)-7,8-dihydro-1,6-naphthyridin-6(5H)-yl)-8-methyl-4H-pyrimido [1,2-b]pyridazin-4-one]
